The source of these data is patent US8946301B2, “Targeting of T-lymphocytes to treat amyotrophic lateral sclerosis” (ALS Therapy Development Institute, priority 2011, dated 2015).

A short description of series [1]: Pharmacokinetic profile of fingolimod in plasma and spinal cord of SOD1 mice. The class given is in vivo. The note with it: G93A-SOD1 transgenic, mouse, male SOD1 mice, single IP bolus 6.7 mg/kg. The method, then:
FIG. 1A is a chart showing the plasma pharmacokinetic profile for fingolimod in male SOD1 mice after a single IP bolus 6.7 mg/kg.
FIG. 1B is a chart showing the spinal cord pharmacokinetic profile for fingolimod in male SOD1 mice after a single IP bolus 6.7 mg/kg.
The pharmacokinetic study provided reagent distribution and elimination parameters in order to guide future in vivo studies. […] Because of the longer than usual half-life of fingolimod, the time points for PK harvest extended beyond the typical 9 point small molecule PK study executed at ALS Therapy Development Institute (ALSTDI, Cambridge, Mass.). Time points included 0, 0.083 hours, 0.25 hours, 0.5 hours, 0.75 hours, 1 hour, 2 hours, 4 hours, 6 hours, 8 hours, 12 hours, 24 hours, 48 hours, 72 hours, and 96 hours.
G93A-SOD1 transgenic mice (shortened to “SOD1 mice”) are mutant for superoxide dismutase 1 (SOD1) and are used as a disease model because of the phenotypic and pathologic resemblance to sporadic and familial human ALS. The SOD1 mice overexpress the superoxide dismutase, CCS, to develop an accelerated disease course that is associated with enhanced mitochondrial pathology and increased mitochondrial localization of mutant SOD1. The results of the fingolimod concentration studies were consistent with published reports for fingolimod in other tissues and models. Tissues analyzed included plasma (FIG. 1A) and spinal cord (FIG. 1B). Fingolimod treated animals were then divided into two groups using two separate doping regimens: • Low Dose Fingolimod Group: IP Load 0.44 mg/kg, Maintenance 0.32 mg/kg every 7 days (q7d), and • High Dose Fingolimod Group: IP Load 2.5 mg/kg, Maintenance 1.8 mg/kg q7d.

The next series deals with CD8+ lymphocytes. Nature of the series: FACS analysis of circulating CD8+ lymphocytes in whole blood of SOD1 mice. The class given is in vivo, mouse. The note with it: for CD8+ cells in whole blood: 4 hours after third dose, control approximately 5%. The method, then:
FIG. 3A is a fluorescent activated cell sorting (FACS) analysis showing the reduction of CD8+ lymphocytes in the circulation of male SOD1 mice that results from fingolimod treatment. A high dose of fingolimod (IP Loading Dose 2.5 mg/kg, Maintenance Dose 1.8 mg/kg q7d), a low dose of fingolimod (IP Loading Dose 0.44 mg/kg, Maintenance Dose 0.32 mg/kg) and a vehicle control group were tested over 14 days. Tissues were harvested 4 hours after the third dose. This time point was selected to best characterize the behavior of lymphocytes when circulating levels of the drug were near peak.
(§1) The following dosage regimen was used to determine the dose dependent effects of fingolimod in SOD1 mice: • Cohorts: • 1) SOD1 Fingolimod Treated “High Dose” (Load 2.5 mg/kg, 1.8 mg/kg Oral q7d) • 4 hour post final dose harvest • 7 day post final dose harvest • 2) SOD1 Fingolimod Treated “Low Dose” (Load 0.44 mg/kg, 0.32 mg/kg Oral q7d) • 4 hour post final dose harvest • 7 day post final dose harvest • 3) SOD1 Vehicle Control • 4 hour post final dose harvest • 7 day post final dose harvest
(§2) The predicted plasma fingolimod load for both the high dose and the low dose regimes were determined, see FIGS. 2A and 2B. Tissues were harvested 4 hours after the third fingolimod dose. This time point was selected to best characterize the behavior of lymphocytes in animals treated with fingolimod when circulating levels of the drug are near peak concentration.
(In general: A flow cytometer gives signals particle by particle.)

The subject of another series is CD45R positive cells. Nature of the series: Circulating CD45R positive cells in whole blood of SOD1 mice. The class given is in vivo, mouse. The note with it: SOD1 animals, high and low dose groups. The method, then: as §1, §2
In a further series the test system is CD4+ lymphocytes. The series can be described thus: FACS analysis of circulating CD4+ lymphocytes in whole blood of SOD1 mice. Format: in vivo, mouse. The note with it: for CD4+ cells in whole blood: 4 hours after third dose, control approximately 12%. The protocol: FIG. 3B is a FACS analysis showing the reduction of CD4+ lymphocytes in the circulation of male SOD1 mice that received fingolimod treatment. Dosing of fingolimod and time points were the same as in FIG. 3A.
as §1, §2

Series [2] deals with lymphocytes in the spleen. Nature of the series: Lymphocyte cell counts in spleen by FACS. Format: in vivo, mouse. The note with it: vs untreated SOD1. The method, then: FIG. 5 is a graph showing cell counts in spleens of animals. SOD1 animals received a loading dose of 2.5 mg/kg fingolimod orally, then oral 1.8 mg/kg once weekly for 3 weeks. Lymphocyte counts were measured via FACS for various cell surface antigens in the spleen.
Lymphocytes were also measured in the spleens of SOD1 fingolimod treated mice and untreated SOD1 mice. After sacrifice, spleens were harvested from each animal and subjected to fluorescent activated cell sorting for each of the cell surface antigens: CD11b, CD28, CD3, CD4, CD86, […], and LY6G.

The mark [3] stands for this setting: SOD1 animals, high and low dose groups.
Setting [4] is: high dose (load 2.5 mg/kg, 1.8 mg/kg q7d).
[5] abbreviates: low dose (load 0.44 mg/kg, 0.32 mg/kg q7d).
Setting [6] is: whole blood, vs vehicle control.

Each structure is given as a SMILES string. Entries after “also recorded” stand apart in the source; their conditions may differ. Like-named read-outs stand apart in the source and are kept apart here. Some results are limits rather than exact numbers.

As for `CCCCCCCCc1ccc(CCC(N)(CO)CO)cc1` [fingolimod, 2-amino-2-(4-octylphenethyl)propane-1,3-diol], in series [1] (plasma, read-out: plasma Cmax), the Cmax (in general, the highest concentration seen after dosing) is 185 ng/mL. For the same compound, the half-life (in general, the time needed for the level to fall by half in the phase considered) in series [1] (plasma, read-out: plasma half-life (converted)) is 31.4 h. The Cmax in series [1] (spinal cord, read-out: spinal cord Cmax) is 630 ng/mL. Also, in series [1] (spinal cord, read-out: spinal cord half-life (converted)), the half-life was 89.2 h. In addition, the “circulating CD8 positive cells in whole / peripheral blood (in words)” value in the series on CD8+ lymphocytes (setting [3]) is listed as “fewer; also recorded: transiently depletes”. The “CD8+ cells in whole blood” value in the series with CD8+ lymphocytes (setting [4]) is listed as “less than 2%”. Also, the “CD8+ cells in whole blood” value in the series with CD8+ lymphocytes (setting [5]) is recorded as “less than 2%”. In the series on CD8+ lymphocytes (setting [6]), the “reduction in CD8+ cells” value is recorded as > 66% and the “reduction in CD8+ cells (fold)” value is on record as “over three-fold”. Moreover, the “circulating CD45R positive cells in whole blood (in words)” value in the series on CD45R positive cells is given as “fewer”. Also, in the series on CD4+ lymphocytes (setting [3]), the “circulating CD4 positive cells in whole / peripheral blood (in words)” value is “fewer; also recorded: transiently depletes”. Moreover, the “CD4+ cells in whole blood” value in the series with CD4+ lymphocytes (setting [4]) is “approximately 5%”. Besides, in the series with CD4+ lymphocytes (setting [5]), the “CD4+ cells in whole blood” value is reported as “approximately 5%”. In the series with CD4+ lymphocytes (setting [6]), the “reduction in CD4+ cells” value was “at least 50%” and the “reduction in CD4+ cells (fold)” value is “over two-fold”. In addition, the “lymphocyte count, CD11b” value in series [2] (load 2.5 mg/kg oral then 1.8 mg/kg once weekly for 3 weeks) is “decreased lymphocyte count”. In series [2] (same regimen), the “lymphocyte count, CD3” value is “decreased lymphocyte count”; the “lymphocyte count, CD4” value is “decreased lymphocyte count”; the “lymphocyte count, CD28” value is “decreased lymphocyte count”; the “lymphocyte count, CD86” value is “decreased lymphocyte count”. Moreover, in series [2] (same regimen), the “lymphocyte count, CTLA34” value is listed as “decreased lymphocyte count” and the “lymphocyte count, LY6G” value is recorded as “decreased lymphocyte count”.
